Results reported in patent US7939554B2, “Protein phosphatase inhibitors” (The Cleveland Clinic Foundation, priority 2006, dated 2011).

How the values were obtained:
recombinant SHP-1 = target: T1, recombinant SHP-1 (Homo sapiens, UniProt P29350); assay: rapid in vitro SHP-1 PTPase assay (DIFMUP fluorescence substrate); type: biochemical; conditions: L5 and analogs, 1 μg/well; FIG. 12A
T1 construct: Recombinant protein of SHP-1 PTPase catalytic domain was described
T1 sequence (P29350 244-515 limits assumed): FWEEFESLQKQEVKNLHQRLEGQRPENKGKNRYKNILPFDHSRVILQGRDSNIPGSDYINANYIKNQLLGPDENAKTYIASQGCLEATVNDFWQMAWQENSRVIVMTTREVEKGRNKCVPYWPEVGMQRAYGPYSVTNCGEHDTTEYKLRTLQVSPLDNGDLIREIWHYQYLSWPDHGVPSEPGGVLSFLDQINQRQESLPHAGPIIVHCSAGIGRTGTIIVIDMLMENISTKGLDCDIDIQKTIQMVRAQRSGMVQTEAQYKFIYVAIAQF
Procedure: Recombinant protein of SHP-1 PTPase catalytic domain was described and stored in Tris buffer (25 mM Tris, pH7.5, 1 mM EDTA, 2 μM 2-ME, 25% glycerol) at −80° C. Fluorescence substrate DIFMUP (6,8-difluoro-4 methylumbelliferyl phosphate) was purchased (Molecular Probes). SSG was reported previously (21-23) and stored at 4° C. in darkness prior to use. Human and mouse IFNγ ELISPOT Kit (R & D System), CD4^+ Cell Intracellular IFNγ Detection Kit (BD Bioscience) and CD8^+ Cell Intracellular IFNγ Detection Kit (BD Bioscience) were purchased from commercial sources. Human Jurkat T cell line (26) and murine B16 melanoma cell line (ATCC) were maintained in […] culture medium supplemented with 10% fetal calf serum (FCS). Antibodies against pLck-pY394 (Cell Signaling), pLck-pY505 (Cell Signaling), pZap70 (pY319, BD Biosciences), pSlp76 (pY128, BD Biosciences) and pLat (pY226, BD Biosciences) were purchased from commercial sources.
A rapid SHP-1 PTPase assay was developed for screening the compounds in a commercial library of 34,000 drug-like small chemicals (Chembridge, Mass.). Briefly, compounds of the library (1 μg/well in […]) were placed in 96-well plates (Falcon, 353072) and mixed with recombinant SHP-1 protein (0.1 μg/well) in […] of HEPES buffer (50 mM HEPS, pH 7.5, 150 mM NaCl, 1 mM EDTA, 0.2 mM DTT and 0.1 mg/ml BSA). The plates were incubated at room temperature for 10 minutes prior to the addition of fluorescence substrate DIFMUP (40 μM stock in HEPES buffer, 10 μl/well) to initiate PTPase reaction. Upon completion of PTPase reaction at room temperature for 1 hr in darkness, fluorescence signal of individual wells were recorded using a Vector^2 Multilabel Counter (Vector, CA). They were compared to that of control SHP-1 PTPase reaction (˜10,000 units of fluorescence signal) in the absence of any compound (100%) for calculating relative SHP-1 inhibition induced by the compounds after subtracting the background signal (˜500 units of fluorescence signal) of the substrate.
To evaluate their SHP-1 inhibitory activity, the analogs (1 μg/well in 0.2 μl DMSO) were aliquot individually to 96-well plates (Falcon, 353072) and mixed with recombinant SHP-1 protein (0.1 μg/well) in 90 μl of HEPES buffer (50 mM HEPS, pH 7.5, 150 mM NaCl, 1 mM EDTA, 0.2 mM DTT and 0.1 mg/ml BSA). The plates were incubated at room temperature for 10 minutes prior to the addition of fluorescence substrate DIFMUP (40 μM stock in HEPES buffer, 10 μl/well) to initiate PTPase reaction. Upon completion of PTPase reaction at room temperature for 1 hr in darkness, fluorescence signal of individual wells were recorded using a Vector^2 Multilabel Counter (Vector, CA). […]

SHP-2 = target: T2, SHP-2 (Homo sapiens, UniProt Q06124); assay: pERK1/2 levels in L5-treated Jurkat cells; type: cell-based; design: endogenous in cells; host or cells: Jurkat; conditions: not at lower doses (0.1 to 0.001 μg/ml)
T2 sequence (Q06124 1-593): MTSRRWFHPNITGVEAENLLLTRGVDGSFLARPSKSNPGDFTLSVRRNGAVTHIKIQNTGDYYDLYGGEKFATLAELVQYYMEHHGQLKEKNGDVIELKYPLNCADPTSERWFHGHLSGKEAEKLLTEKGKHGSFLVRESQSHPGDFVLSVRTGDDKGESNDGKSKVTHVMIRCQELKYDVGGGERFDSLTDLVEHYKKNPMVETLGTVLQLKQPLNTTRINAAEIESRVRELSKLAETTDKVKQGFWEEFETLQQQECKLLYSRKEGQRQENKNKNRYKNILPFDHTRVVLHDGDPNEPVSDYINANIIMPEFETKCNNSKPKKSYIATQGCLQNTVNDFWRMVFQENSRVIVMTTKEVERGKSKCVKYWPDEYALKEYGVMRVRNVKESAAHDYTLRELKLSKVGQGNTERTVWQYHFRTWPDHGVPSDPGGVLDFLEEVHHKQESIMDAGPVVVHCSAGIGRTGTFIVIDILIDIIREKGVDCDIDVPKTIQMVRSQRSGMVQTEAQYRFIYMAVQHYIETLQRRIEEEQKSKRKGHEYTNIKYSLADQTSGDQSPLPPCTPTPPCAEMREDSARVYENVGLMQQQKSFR
Procedure: Jurkat cells in culture medium (3×10^6 cells/ml, 1 ml/tube) were treated with agents for designated times at room temperature. After brief centrifuging in a microfuge (4,000 rpm, 2 min), the cell pellet was lysed on ice for 30 min in […] of cold lysis buffer (1% NP40, 50 mM Tris, pH 7.4, 150 mM NaCl, 20 mM NaF, 0.2 mM Na3VO4 and 1 mM Na3MO4) containing a cocktail of proteinase inhibitors (Sigma, 1 tablet/10 ml). The lysates were cleared by centrifuging (14,000 rpm, 10 min) in a microfuge at 4° C. to remove insoluble parts, mixed with equal volume of 2×SDS-PAGE sample buffer, boiled for 5 min and analyzed (˜3×10^5 cells/well) by SDS-PAGE/Western blotting. Relative intensities of phosphotyrosine bands were quantified through densitometry analysis.
To assess the effects of L5 on other phosphatases, pERK1/2 and pLck-pY505 in L5-treated Jurkat cells were quantified. SHP-2 is known to be a positive mediator of pERK1/2 whereas pLck-pY505 is dephosphorylated by PTPase CD45.

SMILES: O=C1C=CC(=O)C(c2cc(Cl)ccc2Cl)=C1 [L5]
- inhibition of phosphatase activity of recombinant SHP-1 (recombinant SHP-1): completely or almost completely inhibited
- dose reducing pERK1/2 levels (SHP-2): 1 μg/ml
